Here are results for 22 compounds from ChEMBL document CHEMBL1795245, “Pyrazoline based MAO inhibitors: synthesis, biological evaluation and SAR studies” (Bioorg Med Chem Lett, 2011).

Data set [1] addresses T1, Amine oxidase [flavin-containing] A (Homo sapiens, UniProt P21397).
T1 sequence (P21397 whole entry): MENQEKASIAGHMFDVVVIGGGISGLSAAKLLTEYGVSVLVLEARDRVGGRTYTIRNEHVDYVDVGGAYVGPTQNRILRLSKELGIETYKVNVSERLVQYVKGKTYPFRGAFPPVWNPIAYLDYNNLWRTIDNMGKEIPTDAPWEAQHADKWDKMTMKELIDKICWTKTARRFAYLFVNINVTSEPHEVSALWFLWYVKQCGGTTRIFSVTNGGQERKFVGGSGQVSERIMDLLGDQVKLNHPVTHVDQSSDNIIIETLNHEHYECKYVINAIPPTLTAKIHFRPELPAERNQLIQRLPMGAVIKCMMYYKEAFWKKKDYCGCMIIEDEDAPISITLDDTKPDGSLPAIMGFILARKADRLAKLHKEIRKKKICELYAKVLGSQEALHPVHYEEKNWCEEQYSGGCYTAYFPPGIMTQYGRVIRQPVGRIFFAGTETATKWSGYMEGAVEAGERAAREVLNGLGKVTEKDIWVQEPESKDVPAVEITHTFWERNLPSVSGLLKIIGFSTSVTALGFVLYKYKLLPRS
Put plainly: Inhibition of human MAO-A expressed in BTI insect cells using p-tyramine as substrate after 60 mins.

Data set [2] has as its target T2, Amine oxidase [flavin-containing] B (Homo sapiens, UniProt P27338).
T2 sequence (P27338 whole entry): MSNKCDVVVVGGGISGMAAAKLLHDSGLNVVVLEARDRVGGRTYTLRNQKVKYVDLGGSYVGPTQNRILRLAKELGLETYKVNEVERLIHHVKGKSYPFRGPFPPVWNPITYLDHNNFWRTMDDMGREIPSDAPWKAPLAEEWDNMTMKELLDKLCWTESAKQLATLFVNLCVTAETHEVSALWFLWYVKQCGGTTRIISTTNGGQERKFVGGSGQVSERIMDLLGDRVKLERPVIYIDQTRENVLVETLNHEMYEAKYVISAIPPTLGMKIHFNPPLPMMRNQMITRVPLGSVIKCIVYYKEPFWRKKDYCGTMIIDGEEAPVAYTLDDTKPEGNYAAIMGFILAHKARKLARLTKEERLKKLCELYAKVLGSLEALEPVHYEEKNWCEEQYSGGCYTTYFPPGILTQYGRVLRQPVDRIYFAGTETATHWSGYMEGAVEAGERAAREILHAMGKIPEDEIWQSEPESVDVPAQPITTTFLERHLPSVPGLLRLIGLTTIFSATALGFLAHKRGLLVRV
Put plainly: Inhibition of human MAO-B expressed in BTI insect cells using p-tyramine as substrate after 60 mins. In kind it is cell-based.

The species entered for data set [3] is Homo sapiens. Put plainly: Selectivity index, ratio of Ki for human MAO-A to Ki for human MAO-B expressed in BTI insect cells.
For data set [4], the target named is T1, Amine oxidase [flavin-containing] A. Put plainly: Reversible inhibition of human MAO-A expressed in BTI insect cells using p-tyramine as substrate after 60 mins. The note with it: 1 h.
Data set [5] has the same target. Put plainly: Competitive inhibition of human MAO-A expressed in BTI insect cells using p-tyramine as substrate after 60 mins. The note with it: 1 h.

Each structure is given as a SMILES string.

As for `COc1ccccc1NC(=S)N1N=C(c2ccccc2)CC1c1ccc(O)cc1` (centres undefined), the inhibition constant (Ki) in data set [1] turned out to be 2.15 µM; in data set [2] it was 2130 µM. Moreover, the Ratio Ki in data set [3] stood at 0.001. Also, the “inhibition (INH)” value in data set [4] and in data set [5] was “Active” each time.
Consider `Cc1ccccc1NC(=S)N1N=C(c2ccccc2)CC1c1ccc(O)cc1` (centres undefined), for which the Ki was determined as 0.31 µM in data set [1] and 309 µM in data set [2]. The Ratio Ki in data set [3] came to 0.001. In addition, the “inhibition (INH)” value in data set [4] and in data set [5] was “Active” each time.
For `Cc1cccc(NC(=S)N2N=C(c3ccccc3)CC2c2ccc(O)cc2)c1` (centres undefined), the Ki in data set [1] worked out at 0.13 µM; in data set [2], 256 µM. The Ratio Ki in data set [3] was found to be 0.000509. Moreover, the “inhibition (INH)” value in data set [4] and in data set [5] was “Active” throughout.
In the case of `O=C(NCCN1CCOCC1)c1ccc(Cl)cc1` [MOCLOBEMIDE], the “inhibition (INH)” value in data set [4] and in data set [5] was “Active” each time.
Take `Cc1ccc(C2CC(c3ccccc3)=NN2C(=N)N)cc1` (centres undefined): the values for the inhibition constant Ki in data set [1] and in data set [2] were 0.4 µM and 4.11 µM, respectively. For the same compound, the Ratio Ki in data set [3] amounted to 0.099. Also, the “inhibition (INH)” value in data set [4] and in data set [5] was “Active” in each case.
Turning to `N=C(N)N1N=C(c2ccccc2)CC1c1ccc(Cl)cc1` (centres undefined), the Ki came out at 0.15 µM in data set [1] and 4.22 µM in data set [2]. Further, the Ratio Ki in data set [3] was 0.035. The “inhibition (INH)” value in data set [4] and in data set [5] was “Active” throughout.
With `Cc1ccc(NC(=S)N2N=C(c3ccccc3)CC2c2ccccc2O)cc1` (centres undefined), the inhibitory constant (Ki) in data set [1] is 0.29 µM; in data set [2], 69.9 µM. Further, the Ratio Ki in data set [3] came out at 0.004. Besides, the “inhibition (INH)” value in data set [4] and in data set [5] was “Active” each time.
For the compound `NC(=S)N1N=C(c2ccccc2)CC1c1ccncc1` (centres undefined), the figures for the inhibition constant Ki in data set [1] and in data set [2] were 0.456 µM and 4 µM, respectively. In data set [3], the Ratio Ki turned out to be 0.114. Besides, the “inhibition (INH)” value in data set [4] and in data set [5] was “Active” throughout.
In the case of `N=C(N)N1N=C(c2ccccc2)CC1c1ccncc1` (centres undefined), the inhibitory constant (Ki) in data set [1] is 0.67 µM; in data set [2], 4.8 µM. The Ratio Ki in data set [3] turned out to be 0.14. Moreover, the “inhibition (INH)” value in data set [4] and in data set [5] was “Active” throughout.
As for `COc1ccc(NC(=S)N2N=C(c3ccccc3)CC2c2ccc(O)cc2)cc1` (centres undefined), the results for the Ki in data set [1] and in data set [2] were 0.09 µM and 401 µM, respectively. In data set [3], the Ratio Ki came out at 0.000226. The “inhibition (INH)” value in data set [4] and in data set [5] was “Active” each time.
`COc1ccccc1NC(=S)N1N=C(c2ccccc2)CC1c1ccccc1O` (centres undefined): the inhibition constant (Ki) in data set [1] amounted to 0.31 µM; in data set [2] it was 60 µM. For the same compound, the Ratio Ki in data set [3] is 0.005. For the same compound, the “inhibition (INH)” value in data set [4] and in data set [5] was “Active” throughout.
For the compound `NC(=O)N1N=C(c2ccccc2)CC1c1ccncc1` (centres undefined), the figures for the Ki in data set [1] and in data set [2] were 7 µM and 4.79 µM, respectively. For the same compound, in data set [3], the Ratio Ki was 1.46. Besides, the “inhibition (INH)” value in data set [4] and in data set [5] was “Active” throughout.
Consider `COc1ccc(NC(=S)N2N=C(c3ccccc3)CC2c2ccccc2O)cc1` (centres undefined), for which the Ki is 0.17 µM in data set [1] and 60.2 µM in data set [2]. In addition, the Ratio Ki in data set [3] was determined as 0.001. For the same compound, the “inhibition (INH)” value in data set [4] and in data set [5] was “Active” throughout.
Regarding `NC(=O)N1N=C(c2ccccc2)CC1c1ccc(Cl)cc1` (centres undefined), the Ki in data set [1] is 0.3 µM; in data set [2], 1.66 µM. Also, the Ratio Ki in data set [3] turned out to be 0.181. Moreover, the “inhibition (INH)” value in data set [4] and in data set [5] was “Active” each time.
As to `COc1cccc(NC(=S)N2N=C(c3ccccc3)CC2c2ccccc2O)c1` (centres undefined), the inhibition constant (Ki) in data set [1] worked out at 0.1 µM; in data set [2], 979 µM. Moreover, the Ratio Ki in data set [3] worked out at 0.000102. Besides, the “inhibition (INH)” value in data set [4] and in data set [5] was “Active” in each case.
`Cc1cccc(NC(=S)N2N=C(c3ccccc3)CC2c2ccccc2O)c1` (centres undefined): the results for the Ki in data set [1] and in data set [2] were 0.3 µM and 250 µM, respectively. Moreover, the Ratio Ki in data set [3] came to 0.001. Besides, the “inhibition (INH)” value in data set [4] and in data set [5] was “Active” in each case.
Take `Cc1ccc(NC(=S)N2N=C(c3ccccc3)CC2c2ccc(O)cc2)cc1` (centres undefined): the inhibitory constant (Ki) in data set [1] amounted to 0.36 µM; in data set [2] it was 300 µM. Moreover, the Ratio Ki in data set [3] was 0.001. In addition, the “inhibition (INH)” value in data set [4] and in data set [5] was “Active” throughout.
With `C#CCN(C)[C@H](C)Cc1ccccc1` [SELEGILINE], the “inhibition (INH)” value in data set [4] and in data set [5] was “Active” in each case.
`Cc1ccc(C2CC(c3ccccc3)=NN2C(N)=O)cc1` (centres undefined): the Ki in data set [1] was 0.49 µM; in data set [2], 3.2 µM. For the same compound, the Ratio Ki in data set [3] was found to be 0.153. Further, the “inhibition (INH)” value in data set [4] and in data set [5] was “Active” throughout.
Take `COc1ccc(C2CC(c3ccccc3)=NN2C(N)=O)cc1` (centres undefined): the inhibition constant Ki in data set [1] stood at 0.98 µM; in data set [2], 1.88 µM. The Ratio Ki in data set [3] was found to be 0.521. Further, the “inhibition (INH)” value in data set [4] and in data set [5] was “Active” each time.
In the case of `COc1cccc(NC(=S)N2N=C(c3ccccc3)CC2c2ccc(O)cc2)c1` (centres undefined), the inhibition constant Ki in data set [1] amounted to 0.35 µM; in data set [2], 355 µM. Further, the Ratio Ki in data set [3] turned out to be 0.000988. Also, the “inhibition (INH)” value in data set [4] and in data set [5] was “Active” throughout.
Turning to `Cc1ccccc1NC(=S)N1N=C(c2ccccc2)CC1c1ccccc1O` (centres undefined), the Ki in data set [1] came out at 0.25 µM; in data set [2], 22 µM. The Ratio Ki in data set [3] was 0.001. Besides, the “inhibition (INH)” value in data set [4] and in data set [5] was “Active” throughout.

One may read the Ki as the equilibrium dissociation constant of an inhibitor or competing ligand from its target.
